Key:
Type in all cases: cell-based
[1] = system: MCF-7 cells expressing doxycycline-inducible L536R mutant ERα; test: Inhibition of MCF-7 cell proliferation driven by L536R mutant ERα; details: Homo sapiens, MCF7, 120 h, read-out: Inhibition of Proliferation IC50 (nM ± SD)
[2] = system: MCF-7 cells expressing doxycycline-inducible WT ERα; test: Inhibition of MCF-7 cell proliferation driven by WT ERα; details: Homo sapiens, MCF7, 120 h, read-out: Inhibition of Proliferation IC50 (nM ± SD)
[3] = system: MCF-7 cells expressing doxycycline-inducible D538G mutant ERα; test: Inhibition of MCF-7 cell proliferation driven by D538G mutant ERα; details: Homo sapiens, MCF7, 120 h, read-out: Inhibition of Proliferation IC50 (nM ± SD)
[4] = system: MCF-7 cells expressing doxycycline-inducible Y537S mutant ERα; test: cells; details: Homo sapiens, MCF7, 120 h, read-out: Inhibition of Proliferation IC50 (nM ± SD)
[5] = system: mutant ERα (Y537S, D538G, L536R); test: Inhibition of mutant ERα-mediated transcription; details: MCF-7 cells, 100 nM, 24 hours

Row | SMILES | IC50 [1] | IC50 [2] | IC50 [3] | IC50 [4] | inhibition of mutant ER transcriptional activity (in words) [5]
1 | C[C@]12CC[C@@H]3c4ccc(O)cc4C[C@@H](CCCCCCCCC[S+]([O-])CCCC(F)(F)C(F)(F)F)[C@H]3[C@@H]1CC[C@@H]2O (some centres unmarked) [fulvestrant] | 2.6 ± 0.4 nM | 0.31 ± 0.03 nM | 5.9 ± 0.6 nM | 16 ± 1.8 nM | 
2 | C[C@]12C[C@H](c3ccc(OCCCCCS(=O)(=O)CCCC(F)(F)C(F)(F)F)cc3)[C@@H]3c4ccc(O)cc4CC[C@H]3[C@@H]1CC[C@@H]2O [RU58668] |  |  |  |  | block much of the activity of all three mutants
